By Ki is commonly meant a measure of affinity in units of concentration, obtained from inhibition or displacement. The EC50 is the concentration at which the effect is half-maximal. For orientation: IC50 means the concentration at which inhibition is half-maximal.

Values joined by “and” are separate entries in the source; they are usually repeats but may differ in a detail not shown here. Equal values may be shown once. Read-outs that look alike come from different tables or passages of the source.

For one experiment, the target named is BCL-2 (Homo sapiens, UniProt P10415). The experiment is described as follows: Time-resolved FRET binding assay. Conditions: TR-FRET. How it is done: (§1) Binding affinities for MCL-1, BCL-2, BCL-XL, BCL-W, and BCL2-A1 were determined using a time-resolved fluorescence resonance energy transfer (FRET) assay. Test compounds were serially diluted in DMSO starting at […] (20× starting concentration; 100% DMSO followed by a 1:10 dilution of the compound DMSO plate into assay buffer); 10 µL of the compound in 10% DMSO was then transferred into a 384-well plate (low-volume Corning #3673 assay plate). Glutathione S-transferase (GST)-tagged recombinant BCL-2, BCL-XL, MCL-1, BCL-W, or BCL2-A1 protein (1 nM each) were mixed with 100 nM Oregon Green™-labeled f-BAK peptide probe and 1 nM Tb-labeled anti-GST antibody were mixed. Then 10 µL of a 2× protein/probe/antibody mix was added to each well of increasing concentrations of test compound in assay buffer (20 mM potassium phosphate, pH 7.6, 50 mM NaCl, 1 mM ethylenediaminetetraacetic acid disodium salt dihydrate, 0.05% pluronic acid F-68, 1 mM DL-dithiothreitol) at room temperature (final concentrations listed in Supplementary Table S2). The samples were then mixed on a shaker for 1 min and incubated for an additional 1 h at room temperature. For each assay plate, a probe/antibody and protein/antibody/probe mixture were included as a negative and a positive control, respectively. Fluorescence was measured on the EnVision™ (Perkin Elmer) using a 340/35-nm excitation filter and 520/525- (F-Bak) and 495/510-nm (Tb-labeled anti-glutathione S-transferase [GST] antibody) emission filters. Dissociation constants were determined using Wang’s equation[35]. The time-resolved FRET assay can be performed in the presence of varying concentrations of human serum to determine apparent half-maximal inhibitory concentration after serum protein binding.
BCL-2, sequence (P10415 whole entry): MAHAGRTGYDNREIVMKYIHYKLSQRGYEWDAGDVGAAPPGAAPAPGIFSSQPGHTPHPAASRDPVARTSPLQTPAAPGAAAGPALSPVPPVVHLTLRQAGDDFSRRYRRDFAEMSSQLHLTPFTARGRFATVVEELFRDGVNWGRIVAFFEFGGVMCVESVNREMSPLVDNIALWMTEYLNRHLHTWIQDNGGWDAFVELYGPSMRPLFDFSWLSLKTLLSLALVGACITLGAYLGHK

The target in another experiment is T1, BCL-W (Homo sapiens, UniProt Q92843).
T1 sequence (Q92843 1-193): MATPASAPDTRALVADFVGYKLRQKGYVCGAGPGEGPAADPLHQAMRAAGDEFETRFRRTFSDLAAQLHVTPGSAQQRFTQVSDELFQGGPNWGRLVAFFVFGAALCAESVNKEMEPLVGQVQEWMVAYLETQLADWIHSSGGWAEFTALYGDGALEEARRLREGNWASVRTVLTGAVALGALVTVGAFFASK
The experiment in a line: Time-resolved FRET binding assay. Here is the method:
as §1

Another experiment has as its target BCL-XL (Homo sapiens, UniProt Q07817). The experiment is described as follows: Time-resolved FRET binding assay. How it is done: as §1
The target of a further experiment is T2, BCL2-A1 (Homo sapiens, UniProt Q16548).
T2 sequence (Q16548 1-175): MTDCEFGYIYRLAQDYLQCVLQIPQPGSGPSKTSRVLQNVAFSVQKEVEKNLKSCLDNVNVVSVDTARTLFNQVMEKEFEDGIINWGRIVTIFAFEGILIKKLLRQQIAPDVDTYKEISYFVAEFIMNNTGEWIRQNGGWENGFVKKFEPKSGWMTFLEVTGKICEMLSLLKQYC
The experiment is described as follows: Time-resolved FRET binding assay. Conditions: TR-FRET, individual determinations; read-out: Individual Ki, BCL2-A1. How it is done:
as §1

Experiment [1] concerns the target off-target receptors, ion channels, and transporters (Homo sapiens, UniProt O14965). The experiment in a line: Off-target profiling (Supplementary Data 1). The conditions noted are these: TR-FRET Kinome; Invitrogen A-1169612.6 .006(Subs Conc).
For experiment [2], the target named is off-target receptors, ion channels, and transporters (Homo sapiens, UniProt P00519). The experiment in a line: Off-target profiling (Supplementary Data 1). Conditions: TR-FRET Kinome; Invitrogen A-1196581.2 .007(Subs Conc). In general terms: In TR-FRET formats the signal depends on donor and acceptor labels being close together.
Experiment [3] deals with off-target receptors, ion channels, and transporters (Homo sapiens, UniProt P07949). The experiment in a line: Off-target profiling (Supplementary Data 1). Conditions: TR-FRET Kinome; Invitrogen A-1180691.2 .1(Subs Conc).
The target of experiment [4] is off-target receptors, ion channels, and transporters (Homo sapiens, UniProt P08172). The experiment in a line: Off-target profiling (Supplementary Data 1).
off-target receptors, ion channels, and transporters (Homo sapiens, UniProt P08172), sequence (P08172 whole entry): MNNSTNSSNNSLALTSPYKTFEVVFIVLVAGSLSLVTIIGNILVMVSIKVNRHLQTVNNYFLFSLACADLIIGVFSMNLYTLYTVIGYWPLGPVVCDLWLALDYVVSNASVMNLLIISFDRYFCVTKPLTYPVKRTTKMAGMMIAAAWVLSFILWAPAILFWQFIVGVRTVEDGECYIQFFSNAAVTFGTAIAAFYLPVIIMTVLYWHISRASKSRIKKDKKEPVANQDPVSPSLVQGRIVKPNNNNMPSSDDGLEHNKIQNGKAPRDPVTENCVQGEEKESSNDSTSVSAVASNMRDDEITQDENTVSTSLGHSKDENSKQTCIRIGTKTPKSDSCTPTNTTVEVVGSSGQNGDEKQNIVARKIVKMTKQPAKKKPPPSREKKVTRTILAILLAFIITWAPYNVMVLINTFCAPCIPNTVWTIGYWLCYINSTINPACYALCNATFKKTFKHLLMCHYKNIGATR
Experiment [5] addresses off-target receptors, ion channels, and transporters (Homo sapiens, UniProt P08581). The experiment is described as follows: Off-target profiling (Supplementary Data 1). Conditions: TR-FRET Kinome; Invitrogen A-1196581.2 .003(Subs Conc).
Experiment [6] deals with off-target receptors, ion channels, and transporters (Homo sapiens, UniProt P24941). The experiment is described as follows: Off-target profiling (Supplementary Data 1). The conditions noted are these: TR-FRET Kinome; Invitrogen A-1233106.2 .025(Subs Conc).
In experiment [7] the target is off-target receptors, ion channels, and transporters (Homo sapiens, UniProt P29376). The experiment is described as follows: Off-target profiling (Supplementary Data 1). Conditions: TR-FRET Kinome; Invitrogen A-1224615.7 .0125(Subs Conc).
Experiment [8] addresses off-target receptors, ion channels, and transporters (Homo sapiens, UniProt P31749). The experiment in a line: Off-target profiling (Supplementary Data 1). The conditions noted are these: TR-FRET Kinome; SignalChem A-1169612.6 .2(Subs Conc).
The target in experiment [9] is off-target receptors, ion channels, and transporters (Homo sapiens, UniProt P35348). The experiment in a line: Off-target profiling (Supplementary Data 1).
off-target receptors, ion channels, and transporters (Homo sapiens, UniProt P35348), sequence (P35348 whole entry): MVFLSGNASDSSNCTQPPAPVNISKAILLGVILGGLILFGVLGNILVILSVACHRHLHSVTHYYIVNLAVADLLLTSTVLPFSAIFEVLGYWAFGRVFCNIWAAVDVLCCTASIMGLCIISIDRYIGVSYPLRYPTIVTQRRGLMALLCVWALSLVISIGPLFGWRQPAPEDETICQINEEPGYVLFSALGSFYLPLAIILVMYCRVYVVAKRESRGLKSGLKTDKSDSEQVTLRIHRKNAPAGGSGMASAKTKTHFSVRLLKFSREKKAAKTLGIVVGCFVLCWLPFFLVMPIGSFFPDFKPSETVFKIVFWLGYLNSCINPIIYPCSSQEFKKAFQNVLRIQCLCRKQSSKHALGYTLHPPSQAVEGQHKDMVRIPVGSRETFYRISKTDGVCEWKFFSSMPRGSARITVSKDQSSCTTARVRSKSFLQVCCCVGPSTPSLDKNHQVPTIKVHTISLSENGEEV
Experiment [10] deals with off-target receptors, ion channels, and transporters (Homo sapiens, UniProt P42681). The experiment in a line: Off-target profiling (Supplementary Data 1). Conditions: TR-FRET Kinome; SignalChem A-1224127.6 .005(Subs Conc).
off-target receptors, ion channels, and transporters (Homo sapiens, UniProt P42681), sequence (P42681 whole entry): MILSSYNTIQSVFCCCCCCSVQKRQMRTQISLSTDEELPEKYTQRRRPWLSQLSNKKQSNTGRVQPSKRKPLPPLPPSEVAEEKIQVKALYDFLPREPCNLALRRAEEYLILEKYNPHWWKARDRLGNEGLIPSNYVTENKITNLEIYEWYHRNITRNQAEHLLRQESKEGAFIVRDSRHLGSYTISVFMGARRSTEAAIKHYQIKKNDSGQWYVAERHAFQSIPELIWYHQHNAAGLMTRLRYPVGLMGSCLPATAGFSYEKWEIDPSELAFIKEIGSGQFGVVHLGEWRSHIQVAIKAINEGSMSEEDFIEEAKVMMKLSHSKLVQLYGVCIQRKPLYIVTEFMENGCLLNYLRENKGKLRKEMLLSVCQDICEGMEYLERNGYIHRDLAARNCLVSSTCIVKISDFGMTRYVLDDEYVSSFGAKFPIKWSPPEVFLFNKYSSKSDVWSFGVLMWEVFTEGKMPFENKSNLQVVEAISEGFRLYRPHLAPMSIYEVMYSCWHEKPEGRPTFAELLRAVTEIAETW
Experiment [11] deals with off-target receptors, ion channels, and transporters (Homo sapiens, UniProt P43403). The experiment in a line: Off-target profiling (Supplementary Data 1). Conditions: TR-FRET Kinome; SignalChem A-1167389.7 .015(Subs Conc).
Experiment [12] deals with off-target receptors, ion channels, and transporters (Homo sapiens, UniProt P46734). The experiment is described as follows: Off-target profiling (Supplementary Data 1). Conditions: TR-FRET Kinome; Invitrogen A-1224615.7 .2(Subs Conc).
off-target receptors, ion channels, and transporters (Homo sapiens, UniProt P46734), sequence (P46734 whole entry): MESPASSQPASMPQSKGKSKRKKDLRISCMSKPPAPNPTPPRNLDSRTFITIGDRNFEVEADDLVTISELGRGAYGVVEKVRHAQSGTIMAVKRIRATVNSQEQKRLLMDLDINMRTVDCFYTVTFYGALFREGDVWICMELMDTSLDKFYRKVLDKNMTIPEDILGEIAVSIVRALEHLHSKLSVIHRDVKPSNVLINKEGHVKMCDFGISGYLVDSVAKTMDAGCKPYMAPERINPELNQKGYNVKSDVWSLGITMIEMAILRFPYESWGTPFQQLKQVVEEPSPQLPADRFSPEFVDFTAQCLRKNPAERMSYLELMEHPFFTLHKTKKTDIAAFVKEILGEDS

BCL-XL, sequence (Q07817 whole entry): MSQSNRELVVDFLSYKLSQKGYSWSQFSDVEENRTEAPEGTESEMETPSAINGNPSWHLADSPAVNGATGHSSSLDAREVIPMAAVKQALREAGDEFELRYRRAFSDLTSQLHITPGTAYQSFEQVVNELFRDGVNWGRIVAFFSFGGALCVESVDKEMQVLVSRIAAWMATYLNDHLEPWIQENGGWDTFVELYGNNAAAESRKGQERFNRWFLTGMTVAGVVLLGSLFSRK
off-target receptors, ion channels, and transporters (Homo sapiens, UniProt P31749), sequence (P31749 whole entry): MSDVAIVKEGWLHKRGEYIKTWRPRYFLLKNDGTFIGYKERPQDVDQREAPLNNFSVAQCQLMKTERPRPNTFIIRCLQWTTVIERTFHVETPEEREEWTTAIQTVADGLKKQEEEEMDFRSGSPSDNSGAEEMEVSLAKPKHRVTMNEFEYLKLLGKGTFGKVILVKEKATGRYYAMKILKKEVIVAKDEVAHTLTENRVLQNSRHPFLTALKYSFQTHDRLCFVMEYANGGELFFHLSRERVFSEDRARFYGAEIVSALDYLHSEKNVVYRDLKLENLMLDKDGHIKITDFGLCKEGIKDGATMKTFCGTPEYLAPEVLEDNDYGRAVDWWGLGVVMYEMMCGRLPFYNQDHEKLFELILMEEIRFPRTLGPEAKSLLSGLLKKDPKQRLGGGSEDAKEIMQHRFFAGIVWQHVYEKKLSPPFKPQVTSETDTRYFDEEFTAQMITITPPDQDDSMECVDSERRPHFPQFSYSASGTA
off-target receptors, ion channels, and transporters (Homo sapiens, UniProt O14965), sequence (O14965 whole entry): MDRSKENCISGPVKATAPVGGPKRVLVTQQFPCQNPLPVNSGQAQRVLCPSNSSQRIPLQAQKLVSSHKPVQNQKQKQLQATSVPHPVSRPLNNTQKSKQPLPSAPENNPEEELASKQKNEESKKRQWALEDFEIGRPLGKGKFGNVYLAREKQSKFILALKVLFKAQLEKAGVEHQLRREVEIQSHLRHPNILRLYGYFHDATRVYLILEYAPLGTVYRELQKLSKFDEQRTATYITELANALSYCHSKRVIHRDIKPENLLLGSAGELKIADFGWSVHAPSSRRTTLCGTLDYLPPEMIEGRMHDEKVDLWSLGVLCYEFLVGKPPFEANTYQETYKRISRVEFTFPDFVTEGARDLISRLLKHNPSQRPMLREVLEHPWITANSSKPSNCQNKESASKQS
off-target receptors, ion channels, and transporters (Homo sapiens, UniProt P08581), sequence (P08581 25-1390): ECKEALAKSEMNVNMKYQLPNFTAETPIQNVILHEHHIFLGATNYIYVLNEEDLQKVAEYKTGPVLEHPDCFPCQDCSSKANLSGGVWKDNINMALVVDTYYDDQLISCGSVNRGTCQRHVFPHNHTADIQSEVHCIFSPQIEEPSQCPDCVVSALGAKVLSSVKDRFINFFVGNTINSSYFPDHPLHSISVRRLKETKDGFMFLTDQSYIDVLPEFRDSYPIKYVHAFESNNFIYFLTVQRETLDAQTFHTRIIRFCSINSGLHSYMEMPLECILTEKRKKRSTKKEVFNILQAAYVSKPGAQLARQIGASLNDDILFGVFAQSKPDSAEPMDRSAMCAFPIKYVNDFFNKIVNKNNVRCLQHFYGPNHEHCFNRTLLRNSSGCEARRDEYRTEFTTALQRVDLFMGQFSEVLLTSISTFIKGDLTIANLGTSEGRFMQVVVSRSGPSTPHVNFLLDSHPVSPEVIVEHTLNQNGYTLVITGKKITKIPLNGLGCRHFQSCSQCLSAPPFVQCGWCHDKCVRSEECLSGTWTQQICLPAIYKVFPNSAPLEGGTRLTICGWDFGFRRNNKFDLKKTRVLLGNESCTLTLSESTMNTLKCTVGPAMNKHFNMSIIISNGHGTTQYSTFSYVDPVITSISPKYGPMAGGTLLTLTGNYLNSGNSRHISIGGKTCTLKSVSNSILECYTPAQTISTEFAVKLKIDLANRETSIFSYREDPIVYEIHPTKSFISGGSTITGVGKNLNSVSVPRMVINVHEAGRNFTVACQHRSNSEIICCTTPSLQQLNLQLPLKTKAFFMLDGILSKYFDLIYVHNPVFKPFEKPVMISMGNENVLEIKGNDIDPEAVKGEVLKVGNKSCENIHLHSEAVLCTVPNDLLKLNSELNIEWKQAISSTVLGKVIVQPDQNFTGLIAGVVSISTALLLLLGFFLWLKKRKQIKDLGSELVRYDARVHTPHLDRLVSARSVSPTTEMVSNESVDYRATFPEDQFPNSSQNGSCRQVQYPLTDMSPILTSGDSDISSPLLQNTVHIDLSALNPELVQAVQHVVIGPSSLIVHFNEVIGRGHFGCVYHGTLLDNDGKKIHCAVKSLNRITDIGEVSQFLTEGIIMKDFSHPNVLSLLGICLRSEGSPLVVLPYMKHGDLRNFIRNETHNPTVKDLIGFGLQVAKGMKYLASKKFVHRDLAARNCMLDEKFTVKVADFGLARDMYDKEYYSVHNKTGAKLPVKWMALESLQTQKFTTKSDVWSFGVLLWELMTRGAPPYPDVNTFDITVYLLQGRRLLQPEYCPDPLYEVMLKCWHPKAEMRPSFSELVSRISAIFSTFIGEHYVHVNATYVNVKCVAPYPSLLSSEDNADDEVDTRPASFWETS

With `Cc1c(Cl)c2c(Cl)c(C)c1-c1c(-c3ccc(F)cc3)sc3ncnc(c13)O[C@@H](C(=O)O)Cc1cc(ccc1OCc1ccnc(-c3ccc(OC[C@H]4COCCO4)cc3)n1)OC[C@@H](CN1CCN(C)CC1)O2` [ABBV-467], the Ki at BCL-2 (arithmetic mean, read-out: Arithmetic Mean Ki, BCL-2) was above 0.642 µM; at BCL-2 (individual determinations, read-out: Individual Ki, BCL-2), above 0.642 µM; on BCL-W (TR-FRET, arithmetic mean, read-out: Arithmetic Mean Ki, BCL-W), above 247 nM; on BCL-W (TR-FRET, individual determinations, read-out: Individual Ki, BCL-W), above 247 nM; at BCL-W (read-out: TR-FRET, Ki, nM BCL-W) it was above 247 nM; on BCL-XL (TR-FRET, arithmetic mean, read-out: Arithmetic Mean Ki, BCL-XL), above 376 nM. Further, the Ki on BCL-XL (TR-FRET, individual determinations, read-out: Individual Ki, BCL-XL) is above 376 nM; on BCL-XL (read-out: TR-FRET, Ki, nM BCL-XL) it was above 376 nM; at BCL2-A1, 402 nM and > 468 nM (2×). In experiment [1], this compound came in with an Aurora2 - IC50 above 10 µM. The Abl - IC50 in experiment [2] was above 10 µM. Also, in experiment [3], the RET - IC50 is above 10 µM. In [4] (Bioprofiling 6pt Ag), this compound returned an M2 CHO Human - EC50 above 10 µM. In experiment [4] (Bioprofiling 6pt Antag, Carbachol), this compound came in with an M2 CHO Human - IC50 above 10 µM. In experiment [5], this compound returned a cMET - IC50 above 10 µM. For the same compound, in [6], the cdk2 - IC50 is above 10 µM. The LTK - IC50 in experiment [7] is above 10 µM. This compound had an Akt1 - IC50 in experiment [8] above 10 µM. Further, the EC50 in experiment [9] (read-out: Alpha1A CHO Human - EC50, Bioprofiling 6pt Ag) is above 10 µM. Moreover, in [9] (read-out: Alpha1A CHO Human - IC50, Bioprofiling 6pt Antag, A-61603), the IC50 is above 10 µM. The TXK - IC50 in experiment [10] was above 10 µM. Besides, the Zap70 - IC50 in experiment [11] is above 10 µM. This compound had an MAP2K3 - IC50 in [12] above 10 µM.

Source of the values: article PMC10600239, “Selective MCL-1 inhibitor ABBV-467 is efficacious in tumor models but is associated with cardiac troponin increases in patients” (Communications Medicine, 2023).
